The values that follow come from patent US9833497B2, “Human originated EGF domain proteins and use of the same” (CHENGDU SOURCEBIO LIMITED-LIABILITY COMPANY, priority 2013, dated 2017).

In general, MIC refers to the lowest concentration that inhibits growth of the organism.

Holding throughout (format): cell-based
The subject of one test is E. coli DH5α. As to the kind of experiment: Antibacterial activity: MIC and growth curve against E. coli DH5α in 96-well plate. The following applies: minimal inhibitory concentration against E. coli DH5α; 96-well plate, 5×10^5 CFU/mL, 37° C., judged after 8 h. In short, it runs like this: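 MIC taken as lowest protein level with no bacterial growth, tracked by A600 every 30 min during 37 °C, 175 rpm culture. Two-fold protein series 50-12.5 μg/mL final, triplicate wells, against 5×10^5 CFU/mL of LB-washed mid-log cells.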

Another test deals with E. coli BL21. As to the kind of experiment: MIC against Gram-negative bacteria: E. coli BL21. The following applies: for MIC (μg/mL) E. coli BL21 / MIC: E. coli BL21. In short, it runs like this:
(§1)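 Purified recombinant human EGF domain proteins are tested by broth dilution in LB against a 5×10^5 CFU/mL inoculum, with two-fold serial dilutions run in triplicate. Plates are incubated at 37° C with shaking, and the MIC is read as the lowest protein concentration without growth.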

The next test deals with Pseudomonas aeruginosa. As to the kind of experiment: MIC against Gram-negative bacteria: Pseudomonas aeruginosa. In short, it runs like this:
as §1

Another test relates to Klebsiella pneumonia. As to the kind of experiment: MIC against Gram-negative bacteria: Klebsiella pneumonia. In short, it runs like this:
as §1

The subject of another test is Enterobacter cloacae. As to the kind of experiment: MIC against Gram-negative bacteria: Enterobacter cloacae. In short, it runs like this:
as §1

The subject of another test is Aeromonas hydrophila. As to the kind of experiment: MIC against Gram-negative bacteria: Aeromonas hydrophila. The method in brief: as §1
The subject of a further test is Citrobacter diversus. As to the kind of experiment: MIC against Gram-negative bacteria: Citrobacter diversus. The method in brief:
as §1

The test system of the next test is Moraxella catarrhalis. As to the kind of experiment: MIC against Gram-negative bacteria: Moraxella catarrhalis. In short, it runs like this: as §1
The subject of a further test is Proteus mirabilis. As to the kind of experiment: MIC against Gram-negative bacteria: Proteus mirabilis. The method in brief:
as §1

The test system of a further test is Proteus vulgaris. As to the kind of experiment: MIC against Gram-negative bacteria: Proteus vulgaris. In short, it runs like this: as §1
For another test, the system named is Serratia marcescens. As to the kind of experiment: MIC against Gram-negative bacteria: Serratia marcescens. The method in brief: as §1
Setting [1] is: 10 h cultivation at 37° C., 5×10^5 CFU/mL, two-fold serial dilution.
[2] abbreviates: 96-well plate, 5×10^5 CFU/mL, 37° C., 10 h.
Setting [3] is: P. aeruginosa, 10 h cultivation at 37° C.
Setting [4] is: K. pneumonia, 10 h cultivation at 37° C.
Where [5] appears, read: E. cloacae, 10 h cultivation at 37° C.
The mark [6] stands for this setting: A. hydrophila, 10 h cultivation at 37° C.
Setting [7] is: C. diversus, 10 h cultivation at 37° C.
Setting [8] is: M. catarrhalis, 10 h cultivation at 37° C.
[9] abbreviates: P. mirabilis, 10 h cultivation at 37° C.
Where [10] appears, read: P. vulgaris, 10 h cultivation at 37° C.
The mark [11] stands for this setting: S. marcescens, 10 h cultivation at 37° C.

“PRT1131 (RMPGCQHGTCHQPWQCICHSGWAGKFCD; listed as Homo sapiens)” registered a minimal inhibitory concentration (MIC) against E. coli DH5α of 50 µg/mL. Besides, in the test on E. coli BL21 (setting [1]), the “MIC E. coli BL21” value amounted to 12.5 µg/mL. Further, the “MIC P. aeruginosa” value with Pseudomonas aeruginosa (setting [1]) was determined as 50 µg/mL. Also, in the test with Klebsiella pneumonia (setting [1]), the “MIC K. pneumonia” value turned out to be 12.5 µg/mL. For the same substance, the “MIC E. cloacae” value against Enterobacter cloacae (setting [1]) came out at 50 µg/mL. In addition, the “MIC A. hydrophila” value in the test on Aeromonas hydrophila (setting [1]) turned out to be 25 µg/mL. Besides, the “MIC C. diversus” value with Citrobacter diversus (setting [1]) stood at 12.5 µg/mL. The “MIC M. catarrhalis” value against Moraxella catarrhalis (setting [1]) worked out at 50 µg/mL. Further, in the test with Proteus mirabilis (setting [1]), the “MIC P. mirabilis” value worked out at 12.5 µg/mL. Besides, the “MIC P. vulgaris” value in the test with Proteus vulgaris (setting [1]) was 50 µg/mL. In addition, the “MIC S. marcescens” value in the test with Serratia marcescens (setting [1]) worked out at 12.5 µg/mL.
In turn, “PRT87 (DACLLNPCQNQGSCRHLPGAPHGYTCDCVGGYFGHHCE; listed as Homo sapiens)” registered a minimum inhibitory concentration (MIC) against E. coli DH5α of 12.5 µg/mL. The “MIC (μg/mL) E. coli BL21” value against E. coli BL21 (setting [2]) was 12.5 µg/mL. Moreover, the “MIC (μg/mL) P. aeruginosa” value with Pseudomonas aeruginosa (Pseudomonas aeruginosa, 96-well plate, 5×10^5 CFU/mL, 37° C., 10 h) turned out to be 12.5 µg/mL. Besides, the “MIC (μg/mL) K. pneumonia” value against Klebsiella pneumonia (Klebsiella pneumonia, 96-well plate, 5×10^5 CFU/mL, 37° C., 10 h) came out at 50 µg/mL. Also, in the test with Enterobacter cloacae (Enterobacter cloacae, 96-well plate, 5×10^5 CFU/mL, 37° C., 10 h), the “MIC (μg/mL) E. cloacae” value is 12.5 µg/mL. The “MIC (μg/mL) A. hydrophila” value with Aeromonas hydrophila (Aeromonas hydrophila, 96-well plate, 5×10^5 CFU/mL, 37° C., 10 h) was determined as 25 µg/mL. For the same substance, the “MIC (μg/mL) C. diversus” value with Citrobacter diversus (Citrobacter diversus, 96-well plate, 5×10^5 CFU/mL, 37° C., 10 h) came to 50 µg/mL. For the same substance, the “MIC (μg/mL) M. catarrhalis” value with Moraxella catarrhalis (Moraxella catarrhalis, 96-well plate, 5×10^5 CFU/mL, 37° C., 10 h) came out at 25 µg/mL. For the same substance, in the test with Proteus mirabilis (Proteus mirabilis, 96-well plate, 5×10^5 CFU/mL, 37° C., 10 h), the “MIC (μg/mL) P. mirabilis” value came out at 12.5 µg/mL. Also, the “MIC (μg/mL) P. vulgaris” value in the test with Proteus vulgaris (Proteus vulgaris, 96-well plate, 5×10^5 CFU/mL, 37° C., 10 h) was found to be 25 µg/mL. Further, the “MIC (μg/mL) S. marcescens” value with Serratia marcescens (Serratia marcescens, 96-well plate, 5×10^5 CFU/mL, 37° C., 10 h) turned out to be 50 µg/mL.
Substance “PRT515 (CHCDPIGSLNEVCVKDEKHARRGLAPGSCHCKTGFGGVSCDRCARGYTGYPDCKA; listed as Homo sapiens)” yielded an MIC in the test with E. coli DH5α of 25 µg/mL. Also, the “MIC against E. coli BL21” value in the test with E. coli BL21 (setting [2]) is 12.5 µg/mL. For the same substance, the “MIC against P. aeruginosa” value in the test on Pseudomonas aeruginosa (setting [2]) was found to be 25 µg/mL. Further, in the test on Klebsiella pneumonia (setting [2]), the “MIC against K. pneumonia” value is 12.5 µg/mL. For the same substance, the “MIC against E. cloacae” value in the test on Enterobacter cloacae (setting [2]) stood at 25 µg/mL. For the same substance, the “MIC against A. hydrophila” value against Aeromonas hydrophila (setting [2]) turned out to be 50 µg/mL. Moreover, the “MIC against C. diversus” value with Citrobacter diversus (setting [2]) was found to be 25 µg/mL. For the same substance, the “MIC against M. catarrhalis” value in the test with Moraxella catarrhalis (setting [2]) was 100 µg/mL. In addition, the “MIC against P. mirabilis” value in the test with Proteus mirabilis (setting [2]) came out at 50 µg/mL. For the same substance, the “MIC against P. vulgaris” value against Proteus vulgaris (setting [2]) was 12.5 µg/mL. The “MIC against S. marcescens” value against Serratia marcescens (setting [2]) came to 50 µg/mL.
“PRT242 (CEPGCKFGECVGPNKCRCFPGYTGKTC; listed as Homo sapiens)” gave a minimum inhibitory concentration (MIC) with E. coli DH5α of 12.5 µg/mL. In the test with E. coli BL21 (10 h cultivation at 37° C., 5×10^5 CFU/mL), the “MIC (μg/mL) E. coli BL21” value turned out to be 12.5 µg/mL. Also, the “MIC (μg/mL) P. aeruginosa” value in the test on Pseudomonas aeruginosa (P. aeruginosa, 10 h cultivation at 37° C., 5×10^5 CFU/mL) was determined as 50 µg/mL. In the test on Klebsiella pneumonia (K. pneumonia, 10 h cultivation at 37° C., 5×10^5 CFU/mL), the “MIC (μg/mL) K. pneumonia” value came to 50 µg/mL. Moreover, in the test on Enterobacter cloacae (E. cloacae, 10 h cultivation at 37° C., 5×10^5 CFU/mL), the “MIC (μg/mL) E. cloacae” value was determined as 12.5 µg/mL. The “MIC (μg/mL) A. hydrophila” value against Aeromonas hydrophila (A. hydrophila, 10 h cultivation at 37° C., 5×10^5 CFU/mL) is 12.5 µg/mL. Also, the “MIC (μg/mL) C. diversus” value with Citrobacter diversus (C. diversus, 10 h cultivation at 37° C., 5×10^5 CFU/mL) worked out at 12.5 µg/mL. For the same substance, the “MIC (μg/mL) M. catarrhalis” value against Moraxella catarrhalis (M. catarrhalis, 10 h cultivation at 37° C., 5×10^5 CFU/mL) was found to be 12.5 µg/mL. In addition, in the test with Proteus mirabilis (P. mirabilis, 10 h cultivation at 37° C., 5×10^5 CFU/mL), the “MIC (μg/mL) P. mirabilis” value was determined as 12.5 µg/mL. The “MIC (μg/mL) P. vulgaris” value against Proteus vulgaris (P. vulgaris, 10 h cultivation at 37° C., 5×10^5 CFU/mL) is 12.5 µg/mL. The “MIC (μg/mL) S. marcescens” value against Serratia marcescens (S. marcescens, 10 h cultivation at 37° C., 5×10^5 CFU/mL) is 12.5 µg/mL.
Turning to “PRT949 (FVDVCPQMPCLNGGTCAVASNMPDGFICRCPPGFSGARCQ; listed as Homo sapiens)”, the minimum inhibitory concentration (MIC) against E. coli DH5α turned out to be 12.5 µg/mL; against E. coli BL21 (10 h cultivation at 37° C.), 25 µg/mL; in the test on Pseudomonas aeruginosa (setting [3]) it was 50 µg/mL; against Klebsiella pneumonia (setting [4]), 25 µg/mL; in the test on Enterobacter cloacae (setting [5]), 12.5 µg/mL; with Aeromonas hydrophila (setting [6]), 50 µg/mL. The minimum inhibitory concentration (MIC) came to 12.5 µg/mL in the test with Citrobacter diversus (setting [7]); 25 µg/mL in the test with Moraxella catarrhalis (setting [8]); 50 µg/mL against Proteus mirabilis (setting [9]); 12.5 µg/mL against Proteus vulgaris (setting [10]); 25 µg/mL against Serratia marcescens (setting [11]).
As for “PRT1032 (DVNECDIPGHCQHGGTCLNLPGSYQCQCLQGFTGQYCD; listed as Homo sapiens)”, the minimum inhibitory concentration (MIC) against E. coli DH5α was determined as 50 µg/mL; against E. coli BL21 (10 h cultivation at 37° C.), 12.5 µg/mL; against Pseudomonas aeruginosa (setting [3]), 50 µg/mL; in the test on Klebsiella pneumonia (setting [4]) it was 12.5 µg/mL; against Enterobacter cloacae (setting [5]), 50 µg/mL; in the test on Aeromonas hydrophila (setting [6]), 12.5 µg/mL. Besides, the MIC in the test on Citrobacter diversus (setting [7]) worked out at 25 µg/mL; in the test with Moraxella catarrhalis (setting [8]), 50 µg/mL; with Proteus mirabilis (setting [9]), 25 µg/mL; with Proteus vulgaris (setting [10]) it was 12.5 µg/mL; with Serratia marcescens (setting [11]), 25 µg/mL.
